From the supplement of paper PMC8960247
Counter-ions that a name gives are not always drawn. ± gives the standard error.

Assays:
621-102 (TSC2-deficient) = experiment: relative viability vs DMSO; higher = less cytotoxic; conditions: serum: 10% FBS, 72 h
621-103 (TSC2-rescued) = experiment: as above; conditions: serum: 10% FBS, 72 h
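Note: immortalized renal angiomyolipoma cells stably carrying empty vector or TSC2, dosed in 384-well plates in DMEM, viability normalized to vehicle-treated wells within each plate.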

| Structure (SMILES) | relative viability (621-102 (TSC2-deficient); 0.0001 µM) | relative viability (621-102 (TSC2-deficient); 0.001 µM) | relative viability (621-102 (TSC2-deficient); 0.01 µM) | relative viability (621-102 (TSC2-deficient); 0.1 µM) | relative viability (621-102 (TSC2-deficient); 1 µM) | relative viability (621-102 (TSC2-deficient); 10 µM) | relative viability (621-103 (TSC2-rescued); 0.0001 µM) | relative viability (621-103 (TSC2-rescued); 0.001 µM) | relative viability (621-103 (TSC2-rescued); 0.01 µM) | relative viability (621-103 (TSC2-rescued); 0.1 µM) | relative viability (621-103 (TSC2-rescued); 1 µM) | relative viability (621-103 (TSC2-rescued); 10 µM) |
| --- | --- | --- | --- | --- | --- | --- | --- | --- | --- | --- | --- | --- |
| CN1CC2c3ccccc3Oc3ccc(Cl)cc3C2C1 (stereo not drawn) [Asenapine maleate] | 110 ± 1.5% | 105.4 ± 0.74% | 106.4 ± 0.12% | 105 ± 5.3% | 110 ± 3.4% | 89.34 ± 0.58% | 110 ± 0.8% | 113 ± 3.3% | 110.6 ± 0.71% | 112 ± 5% | 103 ± 3.5% | 88.47 ± 0.57% |
| CN(C)C1CCN(C(=O)c2ccc(NC(=O)Nc3ccc(-c4nc(N5CCOCC5)nc(N5CCOCC5)n4)cc3)cc2)CC1 [PKI-587] | 52.3 ± 1.3% | 38.71 ± 0.29% | 29.8 ± 0.13% | 22.16 ± 0.12% | 17.8 ± 0.79% | 13.3 ± 0.47% | 72.6 ± 3.4% | 49.4 ± 3% | 44.8 ± 2.2% | 33.8 ± 1.2% | 26.61 ± 0.072% | 19.91 ± 0.074% |
| COc1cc(Nc2ncc(F)c(Nc3ccc4c(n3)N(COP(=O)(O)O)C(=O)C(C)(C)O4)n2)cc(OC)c1OC | 111.5 ± 1.1% | 107.4 ± 0.97% | 106.9 ± 0.48% | 94.91 ± 0.5% | 87.5 ± 2% | 57.13 ± 0.27% | 103 ± 1.3% | 104.7 ± 0.53% | 101 ± 1.2% | 102 ± 5% | 78.9 ± 2.7% | 14.7 ± 0.48% |
| COc1ccc(-c2ccc3c(N4CCOCC4)nc(N4C[C@@H](C)O[C@@H](C)C4)nc3n2)cc1CO | 74.3 ± 2.3% | 78 ± 8.3% | 65.8 ± 4.5% | 81.3 ± 2.2% | 70.087 ± 0.057% | 27.6 ± 1.1% | 99.9 ± 3% | 88.657 ± 0.066% | 102.1 ± 0.57% | 104 ± 1.4% | 83.1 ± 2.7% | 41.9 ± 0.85% |
| NC(=O)c1cccc2[nH]c(-c3ccc(C4CCCN4)cc3F)nc12 (stereo not drawn) | 98.7 ± 1.1% | 103.2 ± 0.25% | 104 ± 4.6% | 99.4 ± 3.5% | 102 ± 4.6% | 93.99 ± 0.45% | 96.5 ± 3.4% | 98.4 ± 1.8% | 102 ± 2.6% | 98.4 ± 4.6% | 103 ± 2.3% | 94 ± 1.4% |
| Clc1cccc(Cl)c1NC1=NCCN1 [Clonidine HCl (Catapres)] | 111 ± 5% | 110 ± 5.9% | 101 ± 1.1% | 104 ± 3.7% | 102.3 ± 0.16% | 104 ± 1.4% | 96.4 ± 1.4% | 92.5 ± 0.96% | 93.1 ± 9.7% | 110 ± 0.19% | 113 ± 5.1% | 108 ± 1.1% |
| Nc1[nH]cnc2ncnc1-2 [Adenine] | 98 ± 4% | 96.5 ± 2.6% | 100 ± 3% | 97.9 ± 2.6% | 101 ± 2.1% | 112.7 ± 0.18% | 101 ± 3.9% | 98.5 ± 4.1% | 101 ± 1.6% | 97.3 ± 1.1% | 104.9 ± 0.9% | 117 ± 1.5% |
| Nc1nccc(Oc2ccc(NC(=O)c3c[nH]cc(-c4ccc(F)cc4)c3=O)cc2F)c1Cl | 94 ± 10% | 118 ± 2.6% | 111 ± 3.1% | 103 ± 2.8% | 102 ± 2.2% | 94.5 ± 1.3% | 90.9 ± 6.6% | 94.6 ± 4.2% | 102 ± 1.6% | 104 ± 2% | 98.9 ± 1.2% | 98.15 ± 0.84% |
| Cc1cc(Nc2cc(N3CCN(C)CC3)nc(/C=C/c3ccccc3)n2)n[nH]1 [ENMD-2076] | 112 ± 2.8% | 98.5 ± 1.7% | 103.4 ± 0.19% | 98.213 ± 0.069% | 81.1 ± 2.8% | 34.56 ± 0.15% | 100.4 ± 0.78% | 100.9 ± 0.97% | 104 ± 1.5% | 102 ± 2.1% | 73 ± 2.3% | 12.7 ± 0.4% |
| CCN(CCO)CCCOc1ccc2c(Nc3cc(CC(=O)Nc4cccc(F)c4)[nH]n3)ncnc2c1 [AZD1152-HQPA (Barasertib)] | 114 ± 6.7% | 111 ± 1.4% | 107 ± 2% | 79.4 ± 1.5% | 68.2 ± 0.79% | 73 ± 1.6% | 97.225 ± 0.04% | 98.1 ± 0.35% | 96.9 ± 0.98% | 91.9 ± 3.1% | 84.56 ± 0.56% | 85.5 ± 2.6% |
| CCOc1cc2ncc(C#N)c(Nc3ccc(F)c(Cl)c3)c2cc1NC(=O)/C=C/CN(C)C [Pelitinib] | 104 ± 2.2% | 107.2 ± 0.9% | 121.9 ± 0.77% | 107 ± 4% | 80.44 ± 0.46% | 25.2 ± 3.6% | 102 ± 1.2% | 101 ± 1.5% | 100.5 ± 0.68% | 98.7 ± 3% | 65.38 ± 0.34% | 19.6 ± 1.3% |
| OC(CNCC(O)C1CCc2cc(F)ccc2O1)C1CCc2cc(F)ccc2O1 (stereo not drawn) [Nebivolol HCl] | 81.745 ± 0.015% | 103 ± 2.9% | 106 ± 1.1% | 118 ± 7.1% | 106 ± 2.9% | 77.1 ± 11% | 86.6 ± 8.6% | 116.1 ± 0.89% | 114.3 ± 0.92% | 120 ± 2.8% | 108 ± 4.2% | 36.4 ± 5.6% |
| C[C@]1(c2nc3c(C(N)=O)cccc3[nH]2)CCCN1 [ABT-888] | 129 ± 4.1% | 118 ± 1.3% | 124.3 ± 1.1% | 120 ± 1.6% | 122 ± 2.6% | 104 ± 3.6% | 104.8 ± 1% | 103.4 ± 0.84% | 104 ± 0.11% | 104.7 ± 0.51% | 105 ± 1.5% | 103 ± 1.3% |
| O=C(O)[C@H]1O[C@@H](Oc2cc3oc(-c4ccccc4)cc(=O)c3c(O)c2O)[C@H](O)[C@@H](O)[C@@H]1O [Baicalin] | 97.45 ± 0.88% | 108 ± 3.8% | 106 ± 2.6% | 106 ± 1.6% | 110 ± 1.3% | 98.5 ± 1.3% | 113.5 ± 0.92% | 106 ± 1.2% | 118.8 ± 1.1% | 106 ± 4.6% | 105 ± 1.2% | 107.9 ± 0.63% |
| CCCc1nc2c(C)cc(-c3nc4ccccc4n3C)cc2n1Cc1ccc(-c2ccccc2C(=O)O)cc1 [Telmisartan] | 104 ± 2.5% | 104 ± 1.6% | 103 ± 2.6% | 105 ± 1.2% | 112 ± 6.6% | 113.2 ± 0.47% | 101 ± 2.7% | 97.8 ± 4.9% | 95.37 ± 0.79% | 103.34 ± 0.025% | 101 ± 4.2% | 107 ± 2.6% |
| CC(C)(C)C#Cc1cc(N(C(=O)[C@H]2CC[C@H](C)CC2)[C@H]2CC[C@H](O)CC2)c(C(=O)O)s1 [VX-222] | 109 ± 1.1% | 117.11 ± 0.037% | 111 ± 2% | 111 ± 1.3% | 103 ± 4.3% | 106 ± 4.4% | 105.5 ± 0.52% | 102.7 ± 0.81% | 100 ± 1.2% | 99.76 ± 0.98% | 104 ± 4.7% | 105.42 ± 0.075% |
| Cc1ccccc1-n1c(Cn2ncc3c(N)ncnc32)nc2cccc(C)c2c1=O [PIK-293] | 75.5 ± 1.2% | 114 ± 4.8% | 108 ± 1.3% | 118.8 ± 0.73% | 111.4 ± 0.27% | 108 ± 5.3% | 99.57 ± 0.92% | 99.6 ± 1.1% | 98.74 ± 0.94% | 98.35 ± 0.28% | 98.9 ± 1.9% | 94.1 ± 1.5% |
| CCOc1cc2ncc(C#N)c(Nc3ccc(OCc4ccccn4)c(Cl)c3)c2cc1NC(=O)/C=C/CN(C)C [Neratinib] | 110 ± 1.2% | 103 ± 1.1% | 117.5 ± 0.44% | 103.9 ± 0.36% | 88.058 ± 0.084% | 50.9 ± 0.56% | 101.7 ± 0.83% | 99.12 ± 0.5% | 100.4 ± 0.55% | 96 ± 2.1% | 67.12 ± 0.38% | 41.08 ± 0.095% |
| CN1[C@@H]2CC[C@H]1C[C@@H](OC(=O)C(CO)c1ccccc1)C2 (stereo partly drawn) [Atropine sulfate monohydrate] | 64.6 ± 5.9% | 79 ± 1.7% | 83.3 ± 5.4% | 79.6 ± 6.8% | 70.8 ± 5.3% | 63.6 ± 6.5% | 80.5 ± 7% | 92.1 ± 8.5% | 105 ± 6.5% | 97.9 ± 6.4% | 89.9 ± 3.7% | 80.3 ± 5% |
